Experimental data: patent US20190191740A1, “Methods to Promote Growth and Improve Feed Conversion in Animals” (Nutrivert LLC, priority 2016, published 2019)
Bridge positions count the residues as written; N and C are the ends. Square brackets hold non-standard residues; d marks the D form. Peptide text beside a SMILES is read from it. * marks the point of attachment. Ileψ(thiazoline)Cys = CC[C@H](C)[C@H](N)C1=N[C@H](C(=O)*)CS1; dOrn = NCCC[C@@H](N)C(=O)O

Experiments:
broiler chickens [1] = assay: Broiler chicken growth and feed conversion experiment (Example 2, without microbiome seed chickens); format: in vivo, chickens (male Cobb×Cobb); settings: for growth rate (percent body weight gain) / increased growth over the 236.2% rate of untreated control chickens: day 15 to 32; for feed conversion relative to untreated control chickens: no microbiome seed chickens
Experimental: The objective of the experiment was to compare the effect of 1) a low dose of 0.1 mg mifamurtide/kg feed; and 2) an intermediate dose of 0.57 mg romurtide/kg feed, a different MDP analog, to 50 mg bacitracin/kg feed and non-supplemented feed (untreated control chickens). Both the effect on feed conversion and on growth rates, i. e. the dual criteria for growth promotion, were examined.
Two-hundred day-of-hatch male Cobb×Cobb chickens were randomly assigned at 50 each to one of four groups: no feed supplementation; bacitracin at 50 mg/kg of feed; mifamurtide at 0.1 mg/kg of feed; or romurtide at 0.57 mg/kg of feed. Microbiome seed chickens were not used, and individual body weights of all birds were recorded on days 15 and 32. All other experimental parameters followed Example 1.

broiler chickens [2] = assay: Broiler chicken feed conversion experiment (Example 1, with microbiome seed chickens); format: in vivo, chickens (male Ross×Ross); settings: for feed conversion (total consumed feed / total weight gain): days 0 through day 32
Experimental: The primary objective of this experiment was to evaluate if supplementation of feed with mifamurtide at 1.9 mg/kg feed improves feed conversion in broiler chickens, i.e., if broiler chickens require less feed for the same amount of gain in body weight. A secondary objective was to evaluate whether any such improvement compares favorably or unfavorably to improvement seen with bacitracin, an industry standard AGP. A third objective was to evaluate if fast versus slow acquisition of a healthy microbial flora (microbiome) by the experimental chickens influenced feed conversion. A fourth objective was to determine whether feed supplementation with bacitracin, a commonly used industry-standard antibiotic growth promoter, interacted with a potential influence of microbiome acquisition kinetics on feed conversion.
Two hundred day-of-hatch male Ross×Ross chicks were randomly assigned at 50 each to one of four groups: 1 negative control without microbiome seed chickens; 2 negative control with microbiome seed chickens; 3 bacitracin at 50 mg/kg of feed with microbiome seed chickens; or 4 mifamurtide at 1.9 mg/kg of feed with microbiome seed chickens. The mifamurtide was first mixed with 20 g Lactose (Lactochem Fine Powder, DFE Pharma, Germany), then mixed with corn meal to produce a 2% supplement to prepare the feed, which was fed to the birds ad libitum.
The microbiome seed chickens were healthy 21-day-old birds that had been raised on litter of fresh unused pine shavings, and had not been in contact with any other chickens, and thus had microbiomes characteristic of healthy grown birds. At start of the experiment, groups 2-4 of 50 study chicks were exposed to 10 microbiome seed chickens, which were removed on day 5 and were not counted in study results. The objective of the microbiome seed chickens was to rapidly induce a healthy microbiome in the freshly hatched experimental chickens. In contrast, the development of a normal healthy microbiome required more time in the control group without exposure to microbiome seed chickens.
All chicks were reared with a normal broiler starter in mash form, supplemented with amprolium at 113.5 mg/kg. Each group was raised in 5×10 feet floor pens at a stocking density of 1.0 square foot per bird on fresh pine shavings, in a solid-sided barn, with concrete floors, and under ambient humidity. Feed and water were available ad libitum throughout the trial. Thermostatically controlled gas heaters were the primary heat source for the barn, if needed. One heat lamp per pen provided supplemental heat during brooding. Fans were used to cool birds. […] Individual body weights of all birds were recorded on days 8, 21, and 32. […]
The overall (true) feed conversion for each group was determined by dividing total consumed feed by total weight gains of all chickens of the group. […] Calculated feed consumed by birds that died before termination of the experiment was subtracted from total weighed feed. Body weight gain and calculated feed consumption data were analyzed by one-way ANOVA and Tukey Honest True Difference correction for multiple comparisons, and graphs show means±95% confidence intervals. For determination of feed conversion of individual birds, calculated total feed consumption per bird was divided by total weight gain of the bird. […] Group differences in feed conversion were evaluated by non-parametric Mann Whitney U test, and error bars indicate 25-75 percentiles of calculated feed conversions of individual birds. […]

pigs = assay: Pig feed conversion experiment (Example 3); format: in vivo; settings: for feed conversion (total consumed feed / total weight gain): day 0 through day 26
Experimental: The objective of the experiment for Example 3 was to evaluate if MDP analogs promote growth in mammals as they do in birds. Pigs were selected as an animal model for the mammalian study. This experiment was designed to contrast the effect of a low dose of 0.1 mg mifamurtide/kg feed on growth and feed conversion to untreated control pigs and to pigs treated with 50 mg carbadox/kg feed, an industry-standard AGP used in pigs.
Pigs were weaned at 3-4 weeks of age and allotted based on weight and gender to one of 15 nursery pens with 6 pigs per pen (90 total pigs). Sex of the pigs was balanced within pens in a weight block. Dietary treatments were randomly assigned within weight blocks to pens of pigs. Three dietary treatments were administered in the phase 1 and 2 diets. Phase 1 diets were fed from day 0-14 post-weaning. On day 14 post-weaning, pigs were switched to phase 2 diets, which were fed until day […]. Treatment 1 was the untreated negative control diet without any growth-promoting supplement. […] Feed intake was monitored for each pen and weigh period. […]
The overall (true) feed conversion for each group was determined by dividing total consumed feed by total weight gains of all pigs of each treatment. […] Body weight gain and calculated feed consumption data were analyzed by one-way ANOVA and Tukey Honest True Difference correction for multiple comparisons. For determination of feed conversion of individual pigs, calculated total feed consumption of each pig was divided by total measured weight gain of the pig. […] Group differences in feed conversion were evaluated by non-parametric Mann Whitney U test.
Individual daily feed consumption per pig was computed by a mathematical model from individual body weights determined over the course of the 26-day experiment, and from total weighed feed consumed by each pen. […] The model first linearly interpolates body weights between the actual measured body weights of the pigs. Based on the calculated daily body weight, the daily feed consumption is then calculated as 4% of body weight. […]

Compound: CC[C@H](C)[C@H](N)C1=N[C@H](C(=O)N[C@@H](CC(C)C)C(=O)N[C@H](CCC(=O)O)C(=O)N[C@H](C(=O)N[C@H]2CCCCNC(=O)[C@H](CC(N)=O)NC(=O)[C@@H](CC(=O)O)NC(=O)[C@H](Cc3cnc[nH]3)NC(=O)[C@@H](Cc3ccccc3)NC(=O)[C@H]([C@@H](C)CC)NC(=O)[C@@H](CCCN)NC2=O)[C@@H](C)CC)CS1 [bacitracin] ({Ileψ(thiazoline)Cys}-L[dE]IK[dOrn]I[dF]H[dD]N; lactam 4-C)
- body weights on days 15 and 32, body weight gains and feed intake versus the three other treatments (broiler chickens [1]; bacitracin at 50 mg/kg feed): significantly lower
- feed conversion rates versus the three other treatments (broiler chickens [1]; bacitracin at 50 mg/kg feed): higher feed conversion rates
- effect on growth and feed conversion (broiler chickens [1]; bacitracin at 50 mg/kg feed, optimal husbandry, absence of a pathogenic microflora): profoundly negative effect
- improvement in feed conversion over non-microbiome seeded untreated chickens (broiler chickens [2]; 50 mg/kg bacitracin treated, microbiome-seeded chickens): 15.6%
- more feed required than mifamurtide supplementation (1.9 mg/kg feed) for the same amount of weight gain (broiler chickens [2]; bacitracin at 50 mg/kg feed, with microbiome seed chickens, days 0-32): 13.6%
- feed conversion (total consumed feed / total weight gain) (broiler chickens [2]; bacitracin at 50 mg/kg feed, with microbiome seed chickens): 1.823

Compound: COC(=O)N/N=C/c1c[n+]([O-])c2ccccc2[n+]1[O-] [carbadox]
- more feed required for the same amount of weight gain than treatment with 0.1 mg/kg feed mifamurtide (pigs; carbadox 50 mg/kg feed until day 14, 25 mg/kg feed after day 14): 14.6%
- feed conversion (total consumed feed / total weight gain) (pigs; carbadox 50 mg/kg feed until day 14, 25 mg/kg feed after day 14, weaned pigs): 1.692

Compound: CCCCCCCCCCCCCCCCCC(=O)NCCCC[C@H](NC(=O)CC[C@@H](NC(=O)[C@H](C)NC(=O)[C@@H](C)O[C@H]1[C@H](O)[C@@H](CO)OC(O)[C@@H]1NC(C)=O)C(N)=O)C(=O)O (some centres unmarked) [romurtide]
- growth rate (percent body weight gain) (broiler chickens [1]; romurtide at 0.57 mg/kg feed): 267.4%
- increased growth over the 236.2% rate of untreated control chickens (broiler chickens [1]; romurtide at 0.57 mg/kg feed): 13.2%
- feed conversion relative to untreated control chickens (broiler chickens [1]; romurtide at 0.57 mg/kg feed, optimal husbandry): did not decrease feed conversion

Compound: mifamurtide
- feed conversion (total consumed feed / total weight gain) (pigs; 0.1 mg mifamurtide/kg feed, weaned pigs): 1.476
- growth rate (percent body weight gain) (broiler chickens [1]; mifamurtide at 0.1 mg/kg feed): 259.5%
- increased growth over the 236.2% rate of untreated control chickens (broiler chickens [1]; mifamurtide at 0.1 mg/kg feed): 9.9%
- feed conversion relative to untreated control chickens (broiler chickens [1]; mifamurtide at 0.1 mg/kg feed, optimal husbandry): did not decrease feed conversion
- feed conversion (total consumed feed / total weight gain) (broiler chickens [2]; 1.9 mg mifamurtide/kg feed, with microbiome seed chickens): 1.605 g feed/g body weight gain
- total feed consumed per chicken versus negative controls (broiler chickens [2]; mifamurtide 1.9 mg/kg feed, day 0 through day 32 (FIG. 1B)): consumed less feed
